{"source": "patent US20250008996A1", "about": "“Flavored Food and Beverage Products” (Firmenich SA, priority 2014, published 2025)", "assay_type_in_all_cases": "in vivo", "key": {"[1]": {"experiment": "Sweetness intensity in sucrose solution, thirty participants (Example 2)", "details": "125 ppm Naringenin in 5% sucrose solution in water", "protocol": "Example 2. Two samples were prepared. The first sample was a 6% sucrose solution in water. The second sample was a 5% sucrose solution in water with 125 ppm Naringenin. The samples were tested for sweetness intensity by thirty participants."}, "[2]": {"experiment": "Sweetness intensity in 150 ppm Reb.A in water, four trained experts (Example 9)", "protocol": "Example 9: Three samples were prepared and compared with 150 ppm Reb.A (PureCircle) in water; equisweet to 3.5% sucrose (in red, FIG. 9). The first sample comprised 150 ppm Reb.A with 10 ppm Naringenin. The second sample was a 150 ppm Reb.A with 25 ppm Naringenin. The third sample comprised 150 ppm Reb.A with 50 ppm Naringenin. All samples were tested for sweetness intensity at room Temperature by four experts especially trained to evaluate sweet products."}, "[3]": {"experiment": "Sweetness intensity in 300 ppm Reb.A in water, four trained experts (Example 10)", "protocol": "Example 10: Six samples were prepared and compared with 300 ppm Reb.A in water; 100% sweetness level (in red, FIG. 10). The first sample comprised 300 ppm Reb. A with 10 ppm Naringenin. The second sample was a 300 ppm Reb.A with 25 ppm Naringenin. The third sample was a 300 ppm Reb.A with 50 ppm Naringenin. The fourth sample comprised 300 ppm Reb.A with 75 ppm Naringenin. The fifth sample was a 300 ppm Reb.A with 100 ppm Naringenin. The sixth sample was a 300 ppm Reb.A with 150 ppm Naringenin. All samples were tested for sweetness intensity at room Temperature by four experts especially trained to evaluate sweet products. […] On the other hand, the addition of 100 and 150 ppm Naringenin to 300 ppm Reb.A solution has a small loss of sweetness (8%)."}, "[4]": {"experiment": "Tasting of Naringenin alone and combined with sweeteners (summary statements)", "details": "combined with other sweeteners, some embodiments", "protocol": "However, when combined with others sweeteners, Naringenin provides sweetness enhancement to composition comprising a sweetener. In some embodiments, Naringenin provides a sweetness equivalent to 1-2° brix of sucrose equivalents."}}}
{"smiles": "O=C1C[C@@H](c2ccc(O)cc2)Oc2cc(O)cc(O)c21", "note": "[Naringenin, 2,3-Dihydro-5,7-dihydroxy-2(-4-hydroxyphenyl)-4H-1-bcmzopyran-4-one]", "values": [{"measurement": "sweetness level reached, as sucrose solution without Naringenin", "setting": "[1]", "result": "~6", "unit": "% sucrose"}, {"measurement": "sweetness intensity reached, as sucrose level", "setting": "[2]; 50 ppm Naringenin in 150 ppm Reb.A solution, room temperature", "result": 4, "unit": "% sucrose"}, {"measurement": "equisweet Reb.A level in water", "setting": "[3]; 10 to 75 ppm Naringenin in 300 ppm Reb.A solution", "result": 350, "unit": "ppm Reb.A"}, {"measurement": "sweetness enhancement effect", "setting": "[3]; 10 to 75 ppm Naringenin in 300 ppm Reb.A solution, 300 ppm Reb.A = 100%", "result": 17, "unit": "%"}, {"measurement": "loss of sweetness", "setting": "[3]; 100 and 150 ppm Naringenin in 300 ppm Reb.A solution, 300 ppm Reb.A = 100%", "result": 8, "unit": "%"}, {"measurement": "sweetness provided, sucrose equivalents", "setting": "[4]", "result": "1-2 ° brix of sucrose equivalents"}]}
{"smiles": "C=C1C[C@@]23CC[C@H]4[C@@](C)(CCC[C@@]4(C)C(=O)O[C@@H]4O[C@H](CO)[C@@H](O)[C@H](O)[C@H]4O)[C@@H]2CC[C@]1(O[C@@H]1O[C@H](CO)[C@@H](O)[C@H](O[C@@H]2O[C@H](CO)[C@@H](O)[C@H](O)[C@H]2O)[C@H]1O[C@@H]1O[C@H](CO)[C@@H](O)[C@H](O)[C@H]1O)C3", "note": "[Reb.A, rebaudioside A, reference compound]", "values": [{"measurement": "equisweet sucrose level", "setting": "[2]; 150 ppm Reb.A in water without Naringenin", "result": 3.5, "unit": "% sucrose"}]}
